# Columns and labels:
# thrombosis in vitro = thrombosis in vitro of rats (Chandler method); format: in vivo; settings: 90 mg/kg i.v., once per day for 3 days
# Procedure: (§1) All the animal groups were intravenously injected the medicaments through caudal vein with the said dose of 4 ml/kg, once per day for continuously 3 days. 30 minutes after the final injection, animals were anaesthetized with pentobarbital sodium (30.0 mg/kg). 2 ml blood was then drawn from the abdominal aorta for the measurement of the thrombosis in vitro and 3 ml blood (heparinized) was drawn for the measurement of blood viscosity.
# Measurement of the thrombuses in vitro: According to Chandler method in vitro, the blood was immediately filled and sealed in a rotating ring with the volume less than ½ ring (1.8 ml). It was placed on a thrombosis Instrument and rotated for 10 minutes (with experimental temperature of 37° C.). Then the thrombus was spilled out and washed with physiological saline. The length was measured and the wet quality was weighed. The thrombus bar was placed in an 80° C. oven for 3 hours. It was weighed after the weight getting stable.
# Platelet Aggregation = experiment: platelet aggregation of rabbits (Born Turbidimetry); format: in vivo; settings: 45 mg/kg i.v. once per day for 3 days
# Procedure: Before administration, the artery in ears was punctured and the blood was taken to measure the platelet aggregation rate. According to the level of platelet aggregation and the body weight, the 48 rabbits were randomly divided into 6 groups (8 rabbits per group):
# The administration groups were administered medicaments intravenously through ear edges with the said dosages, and the Control group was injected with equivalent volume of 0.9% sodium chloride, once per day for continuously 3 days. After the final medicaments administration, the artery in ears was punctured, the blood sample was taken and the platelet aggregation rate was measured.
# The artery in ears was punctured with a siliconized injector to take blood sample, which was anticoagulated with the citron sodium solution (blood:anticoagulant=9:1). The blood sample solution was centrifuged at 200×g for 8 minutes, and the supernatant, that is, the Platelet Rich Plasma (PRP) was taken. The rest of the solution was centrifuged at 2200×g for 10 minutes, and the top clear part, that is, the Platelet Poor Plasma (PPP) was taken. The count of Platelets in PRP was about 4.0×10^5/mm^3. According to the Born Turbidimetry, the turbidity tube with 200 μl PRP and a small magnetic stick was placed in the platelet aggregation instrument and kept at 37° C. for one minute. After PPP being standardized, an inducer was added with stirring to induce the aggregation. The end concentration of the inducer is: 47.6 μM/L (ADP), 782.0 μM/L (M), and […] (Collagen). The influence of the medicaments upon the Platelet Aggregation was analyzed according to the aggregation curves and maximal aggregation rate printed by the instrument. The calculating formula for maximal aggregation rate was as follows:
# aggregation=Transmittance after PRP Aggregation−Transmittance before PRP Aggregation×100% rate Transmittance of PPP−Transmittance before PRP Aggregation
# blood viscosity of rats = format: in vivo; settings: 90 mg/kg i.v., once per day for 3 days
# Procedure: as §1
# Measurement of the blood viscosity: 0.8 ml blood was taken from the 3 ml blood sample (heparinized) to measure the whole blood viscosity. The rest of the sample was centrifuged at 650×g for 10 minutes. 0.8 ml supernatant was taken to measure the blood plasma viscosity.
# Sarcoma S180 lines = settings: cyclophosphamide alone
# From the text: Kunming Hybrid mice with weight of 18-22 g were inoculated with Sarcoma S180 lines.
# The experimental medicament and animals of this experiment were the same as that of Experimental Example 2.
smiles,measurement,setting,value
CC(=O)Oc1ccccc1C(=O)O.NCCCCC(N)C(=O)O (racemic) [Aspirin-DL-Lysine],Thrombus Dry weight,thrombosis in vitro,18.9 ± 1.4 mg
same,Thrombus Length,thrombosis in vitro,18.8 ± 1.5 mm
same,Thrombus Wet weight,thrombosis in vitro,100.1 ± 12.5 mg
same,Aggregation Rate After administration,Platelet Aggregation; Inducer AA,0.24 ± 0.69%
same,Aggregation Rate Value Difference (after − before),Platelet Aggregation; Inducer AA,−63.65 ± 7.05 %
same,Aggregation Rate After administration,Platelet Aggregation; Inducer ADP,57.78 ± 6.01%
same,Aggregation Rate Value Difference (after − before),Platelet Aggregation; Inducer ADP,8.85 ± 6.37%
same,Aggregation Rate After administration,Platelet Aggregation; Inducer Collagen,45.29 ± 5.72%
same,Aggregation Rate Value Difference (after − before),Platelet Aggregation; Inducer Collagen,−21.19 ± 4.24 %
same,Blood viscosity (100 S^−1),blood viscosity of rats,2.38 ± 1.12
same,"Whole blood viscosity, High shearing (200 S^−1)",blood viscosity of rats,3.37 ± 0.58 CP
same,"Whole blood viscosity, Low shearing (5 S^−1)",blood viscosity of rats,6.35 ± 1.03 CP
same,"Whole blood viscosity, Middle shearing (30 S^−1)",blood viscosity of rats,4.71 ± 0.95 CP
same,"Whole blood viscosity, Middle shearing (100 S^−1)",blood viscosity of rats,3.81 ± 0.91 CP
O=P1(N(CCCl)CCCl)NCCCO1 (stereo not shown) [cyclophosphamide],tumor body (M ± SD),Sarcoma S180 lines,0.89 ± 0.55 volume %
same,Rate of Inhibiting tumors,Sarcoma S180 lines; compared with the Blank Control group,65%Δ

# — US20080206374A1 (priority 2003, published 2008)
